From US11110075B2, “Use of daphnetin in improving function of aortic endothelial cell” (XI'AN JIAOTONG UNIVERSITY, priority 2019, dated 2021)

Columns and labels:
[1] = test system: human aortic endothelial cells (HAECs); assay: MTT assay, viability of HAECs inhibited by palmitic acid; format: cell-based; conditions: HAECs pretreated with 10 μM daphnetin 24 h, then 500 μM palmitic acid 24 h; vs palmitic acid treated cells without daphnetin; FIG. 1
Experimental: (§1) Human aortic endothelial cells (HAECs) were purchased from Shanghai Bioleaf Biotech Co., Ltd. Palmitic acid (PA) was purchased from SIGMA Company. A palmitic acid solution having a concentration of 500 μM was prepared by dissolving palmitic acid in water. A cell culture incubator was adopted to culture the cells in a temperature-constant, humidified, sterile condition. The cells were cultured in wells of culture plates at an atmosphere of 95% air and 5% CO2 at 37° C. in the incubator. The experiments were performed on different experimental groups of cells.
The HAECs that were previously cultured in a 12-well cell culture plates were divided into 6 different experimental groups and respectively applied with daphnetin in different concentrations, 0 μM, 1 μM, 10 μM, 50 μM, 100 μM, and 200 μM, all followed with an 24-hour incubation. Then, each of the 6 groups of cells was further divided into two subgroups; one was applied with 500 μM palmitic acid, the other was not, and all followed with another 24-hour incubation.
An MTT assay was performed to all groups of cells. […] The absorbance was measured at a wavelength of 490 nm in a spectrophotometer. The absorbance of this colored solution can be quantified by measuring at a certain wavelength (usually between 500 and 600 nm) by a spectrophotometer.

[2] = test system: interleukin-6 (IL-6) mRNA; assay: IL-6 mRNA level detection by RT-PCR in palmitic acid treated HAECs; format: cell-based, human; conditions: FIG. 2
Experimental: as §1
The HAECs that were previously cultured in a 12-well cell culture plate were divided into 4 different experimental groups and respectively applied with daphnetin in the respective concentrations, 0 μM, 0 μM, 50 μM, 100 μM, and all followed with an 24-hour incubation. Then, the last 3 groups of cells were respectively applied with 500 μM palmitic acid, the first was not, and all followed with another 24-hour incubation. The detecting of mRNA levels corresponding to interleukin-6 (IL-6) was respectively carried out on each group of cells by using reverse transcription RNA and real-time quantitative polymerase chain reaction (PCR), and the specific method is as follows:
The medium for cell culture in the wells was removed. 500 μL of TRIzol™ reagent was added to each well, and the culture plate was then shaken at room temperature for 5 minutes. Then the cells in the wells were collected and transferred to a 1.5 mL eppendorf (EP) tube. 200 μl (taking […] of total volume of the substance in the EP tube) of chloroform was then added to the EP tube for extraction of […]. The samples were then vigorously stirred for 15 seconds, rested for 15 minutes at room temperature, and then centrifuged at a relative centrifugal force of 12,000 g for 10 minutes at 4° C. […] The concentration of the solution was measured by an ultraviolet spectrophotometer. […]

[3] = test system: mitochondrial membrane fusion related protein Mfn1; assay: Western blot protein detection of Mfn1 in palmitic acid treated HAECs; format: cell-based, human; conditions: FIG. 3A, 3B
Experimental: (§2) Human aortic endothelial cells (HAECs) were purchased from Shanghai Bioleaf Biotech Co., Ltd. Palmitic acid (PA) was purchased from SIGMA Company. A palmitic acid solution having a concentration of 500 μM was prepared by dissolving palmitic acid in water. A cell culture incubator was adopted to culture the cells in a temperature-constant, humidified, sterile condition. The cells were cultured in wells of culture plates at an atmosphere of 95% air and 5% CO2 at 37° C. in the incubator. The experiments were performed on different experimental groups of cells. The HAECs that were previously cultured in a 6-well cell culture plate were divided into 3 different experimental groups, the control (Ctrl) group, the PA group, and the DAP+PA group. The cells of the DAP+PA group were applied with daphnetin in a concentration of 100 μM followed with a 24-hour incubation. Then, the cells of both the PA group and the DAP+PA group were applied with 500 μM palmitic acid, all followed with another 24-hour incubation. The protein detection was respectively carried out on each group of cells as follows. The medium for cell culture in the wells was removed. 150 μL of IP lysis buffer was added to each well of the culture plate. […] The supernatants were collected, and the proteins therein were quantified by bicinchoninic acid (BCA) assay, and normalized. […] Target proteins were detected by chemiluminescence.

[4] = test system: mitochondrial membrane fusion related protein Mfn2; assay: Western blot protein detection of Mfn2 in palmitic acid treated HAECs; format: cell-based, human; conditions: 500 μM palmitic acid 24 h (PA group) vs control group, FIG. 3A, 3B
Experimental: as §2

SMILES | relative cell viability [1] | concentration dependence of inhibition of IL-6 mRNA level ([2]; HAECs pretreated with 50 μM or 100 μM daphnetin, then 500 μM palmitic acid) | mRNA level corresponding to IL-6 ([2]; HAECs pretreated with 100 μM daphnetin 24 h, then 500 μM palmitic acid 24 h, vs palmitic acid alone) | relative protein expression level of Mfn1 ([3]; 100 μM daphnetin 24 h then 500 μM palmitic acid 24 h (DAP+PA group) vs PA group) | increase of mRNA level corresponding to IL-6 ([2]; HAECs, 500 μM palmitic acid 24 h without daphnetin, vs control group) | expression of Mfn1 ([3]; 500 μM palmitic acid 24 h (PA group) vs control group) | expression of Mfn2 [4]
O=c1ccc2ccc(O)c(O)c2o1 [daphnetin, 7,8-dihydroxycoumarin] | higher viabilities | inhibition effect increases with the concentration | significantly decreased | significantly increasing | – | – | –
CCCCCCCCCCCCCCCC(=O)O [palmitic acid] | – | – | – | – | about 20 times | reducing the expression | reducing the expression
